Test results as given in PubChem BioAssay AID2060898 (Molecular Pharmacology Branch, DTP, NCI, 2025).

Tested on: 616215-338-R-J1-PDC complex spheroid viability
Assay: Anticancer human tumor 616215-338-R-J1-PDC patient-derived colon adenocarcinoma cell line growth inhibition [RAS]
Settings: for IC50: curve of first compound; for viability, T/C: stronger effect = lower value
Summary of the method: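 Tumour cells grown as complex spheroids with HUVEC endothelial cells and mesenchymal stem cells, treated with RAS pathway inhibitor combinations. Each agent spans half-log steps from near clinical Cmax, or 10 microM where Cmax is unknown.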
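Note: spheroids exposed to agents for seven days before viability readout.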
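Throughout, for viability, T/C: 100% = DMSO vehicle control viability.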

With `CCc1c2c(nc3ccc(O)cc13)-c1cc3c(c(=O)n1C2)COC(=O)[C@]3(O)CC` + CCn1c(-c2cc(N3CCN(C)CC3)cnc2C(C)OC)c2c3cc(ccc31)-c1csc(n1)CC(NC(=O)C1CC1C)C(=O)N1CCCC(N1)C(=O)OCC(C)(C)C2 the IC50 (second compound 0.000949 µM) was 12.4 nM, the IC50 (second compound 0.003 µM) was 6.6 nM and the IC50 (second compound 0.00949 µM) was 3.33 nM. The IC50 (second compound 0.03 µM) was less than 0.949 nM, the IC50 (second compound 0.0949 µM) was less than 0.949 nM and the IC50 (second compound 0.3 µM) was less than 0.949 nM. The viability, T/C (second compound 0.000949 µM, first compound 0.000949 µM) was 109%, the viability, T/C (second compound 0.000949 µM, first compound 0.003 µM) was 104% and the viability, T/C (second compound 0.000949 µM, first compound 0.00949 µM) was 51.5%. It also gave a viability, T/C (second compound 0.000949 µM, first compound 0.03 µM) of 35.6%, a viability, T/C (second compound 0.000949 µM, first compound 0.0949 µM) of 21.2% and a viability, T/C (second compound 0.000949 µM, first compound 0.3 µM) of 13.4%. The viability, T/C (second compound 0.003 µM, first compound 0.000949 µM) was 109%, the viability, T/C (second compound 0.003 µM, first compound 0.003 µM) was 94.8% and the viability, T/C (second compound 0.003 µM, first compound 0.00949 µM) was 29.1%. It also gave a viability, T/C (second compound 0.003 µM, first compound 0.03 µM) of 23.5%, a viability, T/C (second compound 0.003 µM, first compound 0.0949 µM) of 21.3% and a viability, T/C (second compound 0.003 µM, first compound 0.3 µM) of 12.1%. The viability, T/C (second compound 0.00949 µM, first compound 0.000949 µM) was 87.6%, the viability, T/C (second compound 0.00949 µM, first compound 0.003 µM) was 52.9% and the viability, T/C (second compound 0.00949 µM, first compound 0.00949 µM) was 21%. For the same compound, the viability, T/C (second compound 0.00949 µM, first compound 0.03 µM) was 22.7%, the viability, T/C (second compound 0.00949 µM, first compound 0.0949 µM) was 18.4% and the viability, T/C (second compound 0.00949 µM, first compound 0.3 µM) was 12.2%. The viability, T/C (second compound 0.03 µM, first compound 0.000949 µM) was 45.2%, the viability, T/C (second compound 0.03 µM, first compound 0.003 µM) was 29.1% and the viability, T/C (second compound 0.03 µM, first compound 0.00949 µM) was 23.2%. The viability, T/C (second compound 0.03 µM, first compound 0.03 µM) was 19.6%, the viability, T/C (second compound 0.03 µM, first compound 0.0949 µM) was 15.2% and the viability, T/C (second compound 0.03 µM, first compound 0.3 µM) was 8.75%. It also gave a viability, T/C (second compound 0.0949 µM, first compound 0.000949 µM) of 36.2%, a viability, T/C (second compound 0.0949 µM, first compound 0.003 µM) of 28.7% and a viability, T/C (second compound 0.0949 µM, first compound 0.00949 µM) of 18.1%. It also gave a viability, T/C (second compound 0.0949 µM, first compound 0.03 µM) of 17.6%, a viability, T/C (second compound 0.0949 µM, first compound 0.0949 µM) of 14.6% and a viability, T/C (second compound 0.0949 µM, first compound 0.3 µM) of 9.71%. It also gave a viability, T/C (second compound 0.3 µM, first compound 0.000949 µM) of 35.1%, a viability, T/C (second compound 0.3 µM, first compound 0.003 µM) of 29.8% and a viability, T/C (second compound 0.3 µM, first compound 0.00949 µM) of 24%. It also gave a viability, T/C (second compound 0.3 µM, first compound 0.03 µM) of 23.1%, a viability, T/C (second compound 0.3 µM, first compound 0.0949 µM) of 17.5% and a viability, T/C (second compound 0.3 µM, first compound 0.3 µM) of 10.5%.

For `C=CC(=O)Nc1cc(Nc2nccc(-c3cn(C)c4ccccc34)n2)c(OC)cc1N(C)CCN(C)C` + CCn1c(-c2cccnc2C(C)OC)c2c3cc(ccc31)N1CCOC(CC(NC(=O)C(C(C)C)N(C)C(=O)C3(F)CCN(C(=O)C#CC(C)(C)N(C)C)CC3)C(=O)N3CCCC(N3)C(=O)OCC(C)(C)C2)C1, the IC50 (second compound 0.000949 µM) was greater than 1000 nM, the IC50 (second compound 0.003 µM) was greater than 1000 nM and the IC50 (second compound 0.00949 µM) was greater than 1000 nM. The IC50 (second compound 0.03 µM) was greater than 1000 nM, the IC50 (second compound 0.0949 µM) was greater than 1000 nM and the IC50 (second compound 0.3 µM) was greater than 1000 nM. The viability, T/C (second compound 0.000949 µM, first compound 0.00316 µM) was 98.4%, the viability, T/C (second compound 0.000949 µM, first compound 0.01 µM) was 105% and the viability, T/C (second compound 0.000949 µM, first compound 0.0316 µM) was 116%. It also gave a viability, T/C (second compound 0.000949 µM, first compound 0.1 µM) of 103%, a viability, T/C (second compound 0.000949 µM, first compound 0.316 µM) of 102% and a viability, T/C (second compound 0.000949 µM, first compound 1 µM) of 68.2%. The viability, T/C (second compound 0.003 µM, first compound 0.00316 µM) was 103%, the viability, T/C (second compound 0.003 µM, first compound 0.01 µM) was 106% and the viability, T/C (second compound 0.003 µM, first compound 0.0316 µM) was 99.8%. It also gave a viability, T/C (second compound 0.003 µM, first compound 0.1 µM) of 112%, a viability, T/C (second compound 0.003 µM, first compound 0.316 µM) of 110% and a viability, T/C (second compound 0.003 µM, first compound 1 µM) of 66.2%. It also gave a viability, T/C (second compound 0.00949 µM, first compound 0.00316 µM) of 100%, a viability, T/C (second compound 0.00949 µM, first compound 0.01 µM) of 99.6% and a viability, T/C (second compound 0.00949 µM, first compound 0.0316 µM) of 108%. For the same compound, the viability, T/C (second compound 0.00949 µM, first compound 0.1 µM) was 110%, the viability, T/C (second compound 0.00949 µM, first compound 0.316 µM) was 107% and the viability, T/C (second compound 0.00949 µM, first compound 1 µM) was 80%. It also gave a viability, T/C (second compound 0.03 µM, first compound 0.00316 µM) of 109%, a viability, T/C (second compound 0.03 µM, first compound 0.01 µM) of 105% and a viability, T/C (second compound 0.03 µM, first compound 0.0316 µM) of 100%. The viability, T/C (second compound 0.03 µM, first compound 0.1 µM) was 110%, the viability, T/C (second compound 0.03 µM, first compound 0.316 µM) was 104% and the viability, T/C (second compound 0.03 µM, first compound 1 µM) was 62.7%. For the same compound, the viability, T/C (second compound 0.0949 µM, first compound 0.00316 µM) was 105%, the viability, T/C (second compound 0.0949 µM, first compound 0.01 µM) was 110% and the viability, T/C (second compound 0.0949 µM, first compound 0.0316 µM) was 111%. For the same compound, the viability, T/C (second compound 0.0949 µM, first compound 0.1 µM) was 112%, the viability, T/C (second compound 0.0949 µM, first compound 0.316 µM) was 103% and the viability, T/C (second compound 0.0949 µM, first compound 1 µM) was 66.9%. It also gave a viability, T/C (second compound 0.3 µM, first compound 0.00316 µM) of 97.1%, a viability, T/C (second compound 0.3 µM, first compound 0.01 µM) of 104% and a viability, T/C (second compound 0.3 µM, first compound 0.0316 µM) of 95.9%. For the same compound, the viability, T/C (second compound 0.3 µM, first compound 0.1 µM) was 89.9%, the viability, T/C (second compound 0.3 µM, first compound 0.316 µM) was 97.2% and the viability, T/C (second compound 0.3 µM, first compound 1 µM) was 59%.
